One data set has as its system Tagia sp. The note with it: acute; duration: 14 days; mortality.
Another data set concerns Apis mellifera. The note with it: acute; dermal; mortality.
For the next data set, the system named is Oncorhynchus mykiss. The note with it: chronic/long-term; growth.
Another data set concerns Colinus virginianus. The note with it: for LD50: acute, oral, mortality.
The conditions of data set [1]: chronic/long-term.
The next data set has as its system Daphnia magna. The note with it: chronic/long-term; duration: 21 days; mortality.
The next data set concerns Canidae. The note with it: chronic; duration: 1 years; oral; Dog Other; hematological.
In another data set the test system is Mus musculus. The note with it: acute; oral; mortality.
The subject of a further data set is Rattus norvegicus. The note with it: oral.
A further data set has as its system Anas platyrhynchos. The note with it: acute; oral; unspecified; mortality.

SMILES strings stand for the structures.

As a reminder, the NOAEL is the highest tested level that showed no adverse finding.

In the data set with Tagia sp., `O=C(NC(=O)c1c(F)cccc1F)Nc1ccc(Cl)cc1` [Diflubenzuron] gave an LC50 greater than 1000 mg/kg. Further, the LD50 is 0.05 µg/piece in the data set with Apis mellifera; greater than 1210 mg/kg-day with Colinus virginianus (diet); greater than 5000 mg/kg with Colinus virginianus; greater than 4640 mg/kg in the data set on Mus musculus; 4640 mg/kg with Rattus norvegicus (acute, mortality); greater than 5000 mg/kg in the data set on Anas platyrhynchos. The NOEC with Oncorhynchus mykiss amounted to 0.2 mg/L; in the data set with Colinus virginianus (reproduction developmental), 42.7 mg/kg-day; with Daphnia magna, 4e-05 mg/L. Also, the NOEL in [1] is 3680 mg/kg-day. The no-observed-adverse-effect level (NOAEL) in the data set on Canidae was determined as 10 mg/kg-day; in the data set on Rattus norvegicus (subchronic, duration: 13 weeks, hematological) it was 11 mg/kg-day.

The values are drawn from EPA's ToxValDB 9.5 (doi:10.2903/j.efsa.2009.332r).
